Reference: ChEMBL document CHEMBL6127080, “Design, synthesis and biological evaluation of novel diphenylamine analogues as NLRP3 inflammasome inhibitors” (Bioorg Med Chem, 2024)
pIC50: −log10 of the molar value.

Assays:
[1] = biological target: NACHT, LRR and PYD domains-containing protein 3 (Mus musculus) (UniProt Q8R4B8); assay: Inhibition of NLRP3 inflammasome activation in mouse […] cells assessed as reduction in LPS/ATP-induced IL-1 beta release at 1 uM pretreated with LPS for 4.5 hrs followed by compound addition for 30 mins prior to ATP addition and measured after 30 mins by ELISA relative to control; type: cell-based; details: J774.A1, time 5.5 hrs
[2] = biological target: NACHT, LRR and PYD domains-containing protein 3 (Mus musculus) (UniProt Q8R4B8); assay: Inhibition of NLRP3 inflammasome activation in mouse […] cells assessed as reduction in LPS/ATP-induced IL-1 beta release at 10 uM pretreated with LPS for 4.5 hrs followed by compound addition for 30 mins prior to ATP addition and measured after 30 mins by ELISA relative to control; type: cell-based; details: J774.A1, time 5.5 hrs
[3] = biological target: NACHT, LRR and PYD domains-containing protein 3 (Mus musculus, UniProt Q8R4B8); assay: Inhibition of NLRP3 inflammasome activation in mouse […] cells assessed as reduction in LPS/ATP-induced IL-1 beta release pretreated with LPS for 4.5 hrs followed by compound addition for 30 mins prior to ATP addition and measured after 30 mins by ELISA; type: cell-based, J774.A1
J774.A1 = assay: Cytotoxicity against mouse J774.A1 cells at 50 uM; type: toxicity, cell-based; details: j774.a1, 5.5 h
[4] = Cytotoxicity against mouse J774.A1 cells; type: toxicity, cell-based
[5] = Stability in rat plasma incubated measured upto 48 hrs by HPLC method; type: ADME, cell-free
[6] = Stability in rat liver homogenate incubated measured upto 48 hrs by HPLC method; type: ADME, tissue-based; details: tissue homogenate

Sequence of NACHT, LRR and PYD domains-containing protein 3 (Mus musculus) (Q8R4B8 whole entry, the tested form may be a part): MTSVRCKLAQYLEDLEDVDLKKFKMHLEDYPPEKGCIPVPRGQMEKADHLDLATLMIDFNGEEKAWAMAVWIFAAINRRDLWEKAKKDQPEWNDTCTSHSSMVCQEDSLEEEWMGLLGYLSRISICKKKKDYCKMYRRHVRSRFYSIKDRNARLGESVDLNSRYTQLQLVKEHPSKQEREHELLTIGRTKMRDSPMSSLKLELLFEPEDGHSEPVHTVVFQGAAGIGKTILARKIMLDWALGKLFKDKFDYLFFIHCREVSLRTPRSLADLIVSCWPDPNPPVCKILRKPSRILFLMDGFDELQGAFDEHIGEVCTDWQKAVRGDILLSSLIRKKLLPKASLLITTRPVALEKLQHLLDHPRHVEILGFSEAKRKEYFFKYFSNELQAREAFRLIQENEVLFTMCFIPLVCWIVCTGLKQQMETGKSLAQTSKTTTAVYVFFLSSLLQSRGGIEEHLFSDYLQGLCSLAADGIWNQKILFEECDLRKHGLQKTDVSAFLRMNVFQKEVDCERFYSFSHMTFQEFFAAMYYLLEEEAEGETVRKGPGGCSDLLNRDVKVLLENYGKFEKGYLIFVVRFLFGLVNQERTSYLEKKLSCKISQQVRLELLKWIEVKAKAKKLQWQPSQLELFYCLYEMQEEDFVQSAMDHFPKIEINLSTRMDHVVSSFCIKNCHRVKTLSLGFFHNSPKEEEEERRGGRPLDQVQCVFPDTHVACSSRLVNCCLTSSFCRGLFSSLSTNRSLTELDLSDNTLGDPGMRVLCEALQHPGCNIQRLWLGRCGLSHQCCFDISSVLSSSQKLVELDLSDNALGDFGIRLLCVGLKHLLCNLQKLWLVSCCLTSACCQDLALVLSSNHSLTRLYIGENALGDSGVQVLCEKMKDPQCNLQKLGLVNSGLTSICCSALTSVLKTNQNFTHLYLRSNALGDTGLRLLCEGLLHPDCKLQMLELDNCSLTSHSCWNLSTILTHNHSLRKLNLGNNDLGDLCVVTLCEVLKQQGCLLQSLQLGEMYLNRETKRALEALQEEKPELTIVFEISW
Sequence of NACHT, LRR and PYD domains-containing protein 3 (Q8R4B8 whole entry, the tested form may be a part): as above

Compound | inhibition [1] [%] | inhibition [2] [%] | further results
COCCOc1ccc(Cl)cc1CN(C(=O)Cc1ccsc1)c1ccccc1-c1ccc(NC(=O)C2CCCCC2)cc1 | -2.37 | 39.5 | –
CC(C)(O)c1coc(S(=O)(=O)NC(=O)Nc2c3c(cc4c2CCC4)CCC3)c1 | – | – | pIC50 [3]: 7.82
CCCS(=O)(=O)Nc1ccc(-c2ccccc2N(Cc2cc(Cl)ccc2OCCOC)C(=O)Cc2ccsc2)cc1 | 31.4 | 61.1 | –
CCS(=O)(=O)Nc1ccc(-c2ccccc2N(Cc2cc(Cl)ccc2OCCOC)C(=O)c2ccc(F)cc2)cc1 | 55.4 | 68.2 | –
CCS(=O)(=O)Nc1ccc(-c2ccccc2N(Cc2cc(Cl)ccc2OCCOC)C(=O)Cc2ccsc2)cc1 | 27.5 | 42.5 | –
COCCOc1ccc(Cl)cc1CN(C(=O)Cc1ccsc1)c1ccccc1-c1ccc(NC(=O)Cc2ccccc2)cc1 | 44.5 | 84.3 | –
CCCC(CCC)C(=O)Nc1ccc(-c2ccccc2N(Cc2cc(Cl)ccc2OCCOC)C(=O)Cc2ccsc2)cc1 | 28.6 | 58.1 | –
COCCOc1ccc(Cl)cc1CN(C(=O)Cc1ccsc1)c1ccccc1-c1ccc(NC(=O)OCc2ccccc2)cc1 | 10.6 | 54.4 | –
CCC(=O)Nc1ccc(-c2ccccc2N(Cc2ccc(C(F)(F)F)cc2)C(=O)c2ccc(F)cc2)cc1 | 49.7 | 82.1 | –
CCC(=O)Nc1ccc(-c2ccccc2N(Cc2cc(Cl)ccc2OCCOC)C(=O)c2ccc(F)c(F)c2)cc1 | 36.1 | 27.7 | –
COCCOc1ccc(Cl)cc1CN(C(=O)Cc1ccsc1)c1ccccc1-c1ccc(NC(=O)/C=C/c2ccccc2)cc1 | 11.9 | 36.7 | –
CCC(=O)Nc1ccc(-c2ccccc2N(Cc2cc(Cl)ccc2OCCOC)C(=O)c2cc(F)c(F)c(F)c2)cc1 | 52.5 | 77.4 | –
CCC(=O)Nc1ccc(-c2ccccc2N(Cc2cc(Cl)ccc2OCCOC)C(=O)c2c(F)c(F)c(F)c(F)c2F)cc1 | 39.7 | 23.6 | –
CCC(=O)Nc1ccc(-c2ccccc2N(Cc2cc(Cl)ccc2OCCOC)C(=O)c2ccc(F)cc2)cc1 | – | – | pIC50 [3]: 6.47; pIC50 [4]: 4.30; Stability [5]: Stable; Stability [6]: Stable
COCCOc1ccc(Cl)cc1CN(C(=O)Cc1ccsc1)c1ccccc1-c1ccc(NC(=O)[C@@H]2CCC(=O)N2)cc1 | 54.1 | 84.5 | pIC50 [3]: 6.07
CCC(=O)Nc1ccc(-c2ccccc2N(Cc2ccc(F)cc2)C(=O)c2ccc(F)cc2)cc1 | 40.5 | 39.6 | –
CCNC(=S)Nc1ccc(-c2ccccc2N(Cc2cc(Cl)ccc2OCCOC)C(=O)Cc2ccsc2)cc1 | 29.2 | 78.4 | –
COCCOc1ccc(Cl)cc1CN(C(=O)Cc1ccsc1)c1ccccc1-c1ccc(NC(=O)C2CC2)cc1 | 27.8 | 63.9 | –
CCCCCC(=O)Nc1ccc(-c2ccccc2N(Cc2cc(Cl)ccc2OCCOC)C(=O)c2ccc(F)cc2)cc1 | 7.12 | 45.4 | –
C#CCCCC(=O)Nc1ccc(-c2ccccc2N(Cc2cc(Cl)ccc2OCCOC)C(=O)Cc2ccsc2)cc1 | -0.88 | 49.6 | –
CCCCS(=O)(=O)Nc1ccc(-c2ccccc2N(Cc2cc(Cl)ccc2OCCOC)C(=O)Cc2ccsc2)cc1 | 51.5 | 73.7 | –
CCCS(=O)(=O)Nc1ccc(-c2ccccc2N(Cc2cc(Cl)ccc2OCCOC)C(=O)c2ccc(F)cc2)cc1 | 58.9 | 67.6 | –

Second part, led by results:

inhibition [1] [%] | inhibition [2] [%] | Compound | further results
27.8 | 74.8 | CCC(=O)Nc1ccc(-c2ccccc2N(Cc2cc(F)ccc2OCC(C)(F)F)C(=O)Cc2ccsc2)cc1 | –
24.5 | 72.1 | C=CC(=O)Nc1ccc(-c2ccccc2N(Cc2cc(Cl)ccc2OCCOC)C(=O)Cc2ccsc2)cc1 | –
70.1 | 89.9 | CCC(=O)Nc1ccc(-c2ccccc2N(Cc2cc(Cl)ccc2OCC(C)(F)F)C(=O)Cc2ccsc2)cc1 | pIC50 [3]: 6.26
72.3 | 92.5 | CCC(=O)Nc1ccc(-c2ccccc2N(Cc2cc(Cl)ccc2OCCOC)C(=O)Cc2ccsc2)cc1 | pIC50 [3]: 6.07
76.7 | 93.5 | CCC(=O)Nc1ccc(-c2ccccc2N(Cc2cc(Cl)ccc2OCCOC)C(=O)Cc2ccc(F)cc2)cc1 | pIC50 [3]: 6.19
53.9 | 68.2 | CCCC(=O)Nc1ccc(-c2ccccc2N(Cc2cc(Cl)ccc2OCCOC)C(=O)Cc2ccsc2)cc1 | pIC50 [3]: 5.99
73 | 90.5 | COCCOc1ccc(Cl)cc1CN(C(=O)Cc1ccsc1)c1ccccc1-c1ccc(NC(=O)CBr)cc1 | pIC50 [3]: 6.51; Activity (J774.A1): > 97%
11.1 | 85.4 | COCCOc1ccc(Cl)cc1CN(C(=O)Cc1ccsc1)c1ccccc1-c1ccc(NC(=O)C(C)C)cc1 | –
67.5 | 81.8 | CCCCCC(=O)Nc1ccc(-c2ccccc2N(Cc2cc(Cl)ccc2OCCOC)C(=O)Cc2ccsc2)cc1 | pIC50 [3]: 6.23
56.9 | 84.4 | CCNC(=O)Nc1ccc(-c2ccccc2N(Cc2cc(Cl)ccc2OCCOC)C(=O)Cc2ccsc2)cc1 | –
1.56 | 33.9 | COCCOc1ccc(Cl)cc1CN(C(=O)Cc1ccsc1)c1ccccc1-c1ccc(NC(C)=O)cc1 | –
42.7 | 83.8 | CCC(=O)Nc1ccc(-c2ccccc2N(Cc2cc(F)ccc2OCCOC)C(=O)Cc2ccsc2)cc1 | –
